Converted amounts (≈) assume the structure as drawn.

The subject of one test is E. cloacae. Kind of test: MIC susceptibility testing (modified NCCLS). Format: cell-based. Here is the method:
(§1) The NCCLS (National Committee for Clinical Laboratory Standards), method to determine MIC's of antimicrobial compounds is modified for high-throughput screening. All stocks of tested compounds are prepared in either water or in DMSO depending on solubility. At the highest concentration, DMSO content should not exceed 0.5%. Briefly, twenty 2-fold serial dilutions of test compounds from the highest concentration is made in a 384-well microtiter plate. Each well is inoculated with testing bacteria in broth to a final concentration of approximately 1-1.5×10^6 cells/ml. Bacterial growth is determined by the increase of optical density at 600 nm using a microplate reader (Tecan SpectraFluor Plus).

The next test deals with M. catarrhalis. Kind of test: MIC susceptibility testing (modified NCCLS). Format: cell-based. Here is the method:
as §1

In general, MIC refers to the lowest concentration that inhibits growth of the organism. Higher therefore signals a need for much substance. Take `CSCC[C@H](NC=O)C(=O)N[C@@H](CC(C)C)C(=O)Oc1cc(Cl)ccc1Oc1ccc(Cl)cc1Cl` [Compound #2]: the MIC with E. cloacae (Table 3, E. cloacae ATCC 23355, Exp. #1) is 0.5 µg/mL (≈ 0.89 µM); against E. cloacae (Table 3, E. cloacae ATCC 23355, Exp. #2), 0.5 µg/mL (≈ 0.89 µM); in the test with E. cloacae (Table 4, E. cloacae ATCC 23355, Exp. #1), 16 µg/mL (≈ 28.5 µM); against E. cloacae (Table 4, E. cloacae ATCC 23355, Exp. #2) it was 1 µg/mL (≈ 1.78 µM); in the test on M. catarrhalis (Table 3, M. catarrhalis ATCC 43627, Exp. #1) it was “≦0.125 μg/ml”; in the test on M. catarrhalis (Table 3, M. catarrhalis ATCC 43627, Exp. #2) it was “≦0.125 μg/ml”. The MIC entry against M. catarrhalis (Table 3, M. catarrhalis ATCC 43628, Exp. #1) is given as “≦0.125 μg/ml”; in the test with M. catarrhalis (Table 3, M. catarrhalis ATCC 43628, Exp. #2) it was “≦0.125 μg/ml”; in the test with M. catarrhalis (Table 3, M. catarrhalis ATCC 49265, Exp. #1), “≦0.125 μg/ml”; against M. catarrhalis (Table 3, M. catarrhalis ATCC 49265, Exp. #2), “≦0.125 μg/ml”; against M. catarrhalis (Table 3, M. catarrhalis ATCC 51584, Exp. #1), “≦0.125 μg/ml”; in the test with M. catarrhalis (Table 3, M. catarrhalis ATCC 51584, Exp. #2), “≦0.125 μg/ml”.

For the origin of these results see patent publication US20050096254A1, “Peptide deformylase activated prodrugs” (priority 2002, published 2005).
